# Legend:
# [1] = Compound was tested for plasma half life when administered in dog perorally (1 mg/kg) and intravenously (0.2 mg/kg); type: ADME, organism-based, Canis lupus familiaris
# [2] = Compound was tested for its ability of plasma clearance when administered in dog perorally (1 mg/kg) and intravenously (0.2 mg/kg); type: ADME, organism-based, Canis lupus familiaris; settings: iv
# [3] = Oral bioavailability in dog (1 mg/kg p.o. and 0.2 mg/kg i.v.); type: ADME, organism-based, Canis lupus familiaris; settings: in vivo
# [4] = Partition coefficient (logP); type: physicochemical; settings: octanol/water
# Homo sapiens = organism: Homo sapiens; assay: Inhibitory concentration required for 50% inhibition of the rate of ADP-stimulated platelet aggregation; type: functional, organism-based
# Integrin alpha-V/beta-3 = Integrin alpha-V/beta-3 (Homo sapiens, UniProt P05106+P06756); assay: Inhibition of binding to human alpha V beta3; type: protein-complex assay
# Sequence of Integrin alpha-V/beta-3 (P05106 27-788 limits assumed): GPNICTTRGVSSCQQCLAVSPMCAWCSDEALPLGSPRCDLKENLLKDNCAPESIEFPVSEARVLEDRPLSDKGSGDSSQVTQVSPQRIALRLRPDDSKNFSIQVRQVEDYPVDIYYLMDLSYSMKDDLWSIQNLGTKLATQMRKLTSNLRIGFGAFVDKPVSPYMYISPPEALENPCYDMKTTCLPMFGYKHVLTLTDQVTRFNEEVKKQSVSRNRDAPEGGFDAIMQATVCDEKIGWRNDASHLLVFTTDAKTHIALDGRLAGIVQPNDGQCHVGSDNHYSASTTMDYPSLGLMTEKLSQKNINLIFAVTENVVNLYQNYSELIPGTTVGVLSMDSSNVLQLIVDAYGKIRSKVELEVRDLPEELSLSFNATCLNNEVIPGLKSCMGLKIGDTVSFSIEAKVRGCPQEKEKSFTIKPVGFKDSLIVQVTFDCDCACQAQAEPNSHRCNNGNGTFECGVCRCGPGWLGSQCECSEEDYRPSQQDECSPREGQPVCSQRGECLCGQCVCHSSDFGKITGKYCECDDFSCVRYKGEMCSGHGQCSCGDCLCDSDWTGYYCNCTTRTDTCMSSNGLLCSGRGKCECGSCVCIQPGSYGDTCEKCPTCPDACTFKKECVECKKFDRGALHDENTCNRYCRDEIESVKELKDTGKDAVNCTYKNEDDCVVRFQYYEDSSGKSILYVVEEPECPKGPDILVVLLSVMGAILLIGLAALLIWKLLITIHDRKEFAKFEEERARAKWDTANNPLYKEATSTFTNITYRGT
# Sequence of Integrin alpha-V/beta-3 (P06756 31-889 limits assumed): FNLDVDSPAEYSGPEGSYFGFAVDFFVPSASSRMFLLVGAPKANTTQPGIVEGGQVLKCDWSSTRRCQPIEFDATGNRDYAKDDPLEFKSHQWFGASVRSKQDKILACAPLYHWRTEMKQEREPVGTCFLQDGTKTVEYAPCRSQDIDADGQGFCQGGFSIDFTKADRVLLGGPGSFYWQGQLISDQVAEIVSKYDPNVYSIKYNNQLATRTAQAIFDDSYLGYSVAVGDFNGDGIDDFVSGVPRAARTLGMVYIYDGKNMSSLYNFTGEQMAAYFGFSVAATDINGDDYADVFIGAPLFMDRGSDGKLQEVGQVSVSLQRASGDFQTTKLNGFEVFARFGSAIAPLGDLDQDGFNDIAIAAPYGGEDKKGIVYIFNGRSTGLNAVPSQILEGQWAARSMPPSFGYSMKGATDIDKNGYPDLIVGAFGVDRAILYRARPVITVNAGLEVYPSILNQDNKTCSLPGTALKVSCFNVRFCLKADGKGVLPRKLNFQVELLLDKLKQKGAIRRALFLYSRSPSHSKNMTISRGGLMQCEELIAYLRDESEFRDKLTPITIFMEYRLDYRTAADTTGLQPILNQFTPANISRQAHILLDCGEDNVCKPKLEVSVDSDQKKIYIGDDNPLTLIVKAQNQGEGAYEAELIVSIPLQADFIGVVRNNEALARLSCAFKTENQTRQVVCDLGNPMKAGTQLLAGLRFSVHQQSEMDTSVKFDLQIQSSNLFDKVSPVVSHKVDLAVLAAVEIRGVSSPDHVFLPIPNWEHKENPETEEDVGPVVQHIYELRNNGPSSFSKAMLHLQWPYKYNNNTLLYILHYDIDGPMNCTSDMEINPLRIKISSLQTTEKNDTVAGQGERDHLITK
# Sequence of Integrin alpha-V/beta-3 (P06756 891-1048 limits assumed): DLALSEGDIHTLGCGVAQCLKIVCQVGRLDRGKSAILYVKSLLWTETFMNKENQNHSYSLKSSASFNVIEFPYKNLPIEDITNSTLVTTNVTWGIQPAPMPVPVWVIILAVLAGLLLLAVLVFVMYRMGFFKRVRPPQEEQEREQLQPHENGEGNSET
half-life [1],clearance [2],bioavailability [3],logP [4],IC50 (Homo sapiens),IC50 (Integrin alpha-V/beta-3),SMILES
,,,,,500 nM,O=C(O)CCNC(=O)CCCCc1ccc2c(n1)NCCC2
2.4 h,1.2 mL/min/kg,94%,0.47,> 10000 nM,1.5 nM,O=C(O)C[C@H](NC(=O)CCCCc1ccc2c(n1)NCCC2)c1ccc2c(c1)OCO2
2.4 h,26 mL/min/kg,10%,-1.21,> 10000 nM,3.3 nM,O=C(O)C[C@H](NC(=O)CCCCc1ccc2c(n1)NCCC2)c1cncnc1
,,,,,48 nM,O=C(O)CCNC(=O)CNC(=O)CCCc1ccc2c(n1)NCCC2
2.5 h,1.2 mL/min/kg,99%,0.53,> 10000 nM,3 nM,O=C(O)C[C@H](NC(=O)CCCCc1ccc2c(n1)NCCC2)c1ccc2c(c1)OCC2
5.5 h,2 mL/min/kg,81%,0.29,> 10000 nM,23 nM,O=C(O)C[C@H](NC(=O)CCCCc1ccc2c(n1)NCCC2)c1cccc(F)c1

# Further lines, the compound ahead of its results:
SMILES,half-life [1],clearance [2],bioavailability [3],logP [4],IC50 (Homo sapiens),IC50 (Integrin alpha-V/beta-3)
O=C(O)C[C@H](NC(=O)CCCCc1ccc2c(n1)NCCC2)c1ccc2nc(O)oc2c1,1.2 h,37 mL/min/kg,25%,-0.24,> 10000 nM,13.1 nM
O=C(O)C[C@H](NC(=O)CNC(=O)CCCc1ccc2c(n1)NCCC2)c1cnc2ccccc2c1,,,,,,0.67 nM
O=C(O)C[C@H](NC(=O)CCCCc1ccc2c(n1)NCCC2)c1cnc2ccccc2c1,2.4 h,5.8 mL/min/kg,65%,0.76,4440 nM,1.6 nM
O=C(O)C[C@H](NC(=O)CCCCCCc1ccc2c(n1)NCCC2)c1cnc2ccccc2c1,,,,,,5.8 nM
O=C(O)C[C@H](NC(=O)CCCCCc1ccc2c(n1)NCCC2)c1cnc2ccccc2c1,,,,,,5.9 nM
